Activity calls are given as the source filed them. No rule for the calls is given here.
target: Heat shock protein HSP 90-alpha (Homo sapiens) (UniProt P07900); assay: tumor Hsp90 inhibitor potency, dose response (AID 712); conditions: Hsp90 inhibition assay

Structure (SMILES) | IC50
Cn1c(=O)c2c(nc(NCc3ccc4c(c3)OCO4)n2C)n(C)c1=O | > 50 µM (inactive)
COc1cc(NCCCC(C)=NO)c2nccc(OCc3ccccc3)c2c1 | > 50 µM (inactive)
CCOc1ccc(S(=O)(=O)Nc2cc(Sc3ncn[nH]3)c3oc(=O)sc3c2)cc1 | inactive
N#C/C(=C\c1ccc(O)c(O)c1)C(=O)NCCCc1ccccc1 | 19.1 µM
COc1ccc(C(=O)c2c(C)n(C)c(=O)n(C)c2=O)cc1 | > 50 µM (inactive)
O=S(=O)(Nc1ccc(O)c(-c2c(O)ccc3ccccc23)c1)c1ccccc1 | 13 µM
Cn1ncnc2c(=O)n(C)c(=O)nc1-2 | 0.238 µM
C[C@H]1CCCC(=O)CCCCCc2cc(O)cc(O)c2C(=O)O1 | 2.2 µM
Oc1ccc(-c2onc(C(F)(F)F)c2-c2cscn2)c(O)c1 | 18 µM
CCC(C)NCCNc1cc(OC)cc2cccnc12 (stereo not given) | 3.12 µM
Nc1cccc(S(=O)(=O)Nc2ccc(N)c(-c3ccccc3O)c2)c1 | > 50 µM (inactive)
CCOC(=O)Cc1c[nH]c2ccc(N)cc12 | > 50 µM (inactive)
CCc1ccc(CNc2ccc(N3CCN(C(C)=O)CC3)cc2)cc1 | inactive
Oc1ccc2ccccc2c1C=NC12CN3CCN(CN(C3)C1)C2 | 6.41 µM
N#Cc1c(-c2ccco2)[nH]c(=O)[nH]c1=O | > 50 µM (inactive)
Cc1cc(SCC(N)=O)nc(SCC(=O)c2ccccc2)n1 | > 50 µM (inactive)
CC1=CC(C#N)(C#N)C(C#N)(C#N)C(c2ccccc2)N1 (stereo not given) | 7.38 µM
CCN(CC)CCCCCNc1cc(O)cc2cccnc12 | 6.25 µM
O=C(OC1CCc2ccccc2C1=O)c1ccccc1O (stereo not given) | > 50 µM (inactive)
COc1ccc2c(c1-c1cc(NS(=O)(=O)c3cc(Cl)ccc3Cl)ccc1N)OCO2 | > 50 µM (inactive)
O=C1c2ccccc2C(O)(O)C1(O)C1(O)C(=O)c2ccccc2C1(O)O (stereo not given) | 5 µM
O=C1C2C3C=CC(C3)C2C(=O)N1CNc1ccc(O)cc1 (stereo not given) | 14.7 µM
CCOc1ccc2ccccc2c1-c1cc(NS(=O)(=O)c2cc(Cl)ccc2Cl)ccc1NC(=O)OC(C)(C)C | > 50 µM (inactive)
CCCCn1c(NC(=O)c2ccccc2)c(C#N)c2nc3ccccc3nc21 | 27.1 µM
CN(C)[C@@H]1C(=O)C(C(N)=O)=C(O)[C@@]2(O)C(=O)C3=C(O)c4c(O)cccc4[C@@](C)(O)[C@H]3C[C@@H]12 | 22.4 µM
Nc1ccc(CSc2ccc(Cl)cc2)c(O)c1 | > 50 µM (inactive)
C=CCn1c(NC(=O)c2ccccc2Cl)c(C#N)c2nc3ccccc3nc21 | > 50 µM (inactive)
CCc1cc(-c2[nH]ncc2-c2ccc3c(c2)OCO3)c(O)cc1O | 1.97 µM

Structure (SMILES) | IC50
Cc1ccccc1Nc1cc2ccccc2c(=O)[nH]1 | inactive
COc1ccc(C2CC(c3ccccc3O)=NN2)cc1OC (stereo not given) | > 50 µM (inactive)
N#Cc1cc(S(=O)(=O)Nc2cc(O)cc3cccnc23)ccc1F | inactive
CC(CCN(C)C)Nc1cc(O)cc2cccnc12 (stereo not given) | 1.56 µM
Cc1nnc(NC(=O)CSc2nc(N)cc(N)n2)s1 | > 50 µM (inactive)
COc1ccc2c(c1-c1cc(NS(=O)(=O)c3cccc(N)c3)ccc1N)OCO2 | > 50 µM (inactive)
CCOC(=O)c1oc2c(O)c(O)ccc2c(=O)c1-c1nncn1-c1ccccc1 | 24.1 µM
COc1ccc(N2C(=O)CSC23C(=O)N2CCCc4cccc3c42)cc1 (stereo not given) | > 50 µM (inactive)
O=C(c1n[nH]c(=O)c2ccccc12)N1CCN(C2c3ccccc3-c3ccccc32)CC1 | > 50 µM (inactive)
Oc1cccc2cccnc12 | > 50 µM (inactive)
O=C1c2ccccc2-c2onc3ccc(NCCCn4ccnc4)c1c23 | 0.28 µM
O=C1C(C2=C(O)c3ccccc3C2=O)=Nc2ccccc21 | > 50 µM (inactive)
CCOc1ccc2ccccc2c1-c1cc(NS(=O)(=O)c2ccc(C)cc2)ccc1N | > 50 µM (inactive)
Cn1c(=O)c2c(nc(CN3CCc4ccccc4C3)n2CCCO)n(C)c1=O | > 50 µM (inactive)
O=C(CSc1nnc(Cc2cc(=O)[nH]c(=O)[nH]2)n1-c1ccccc1)NCC1CCCO1 (stereo not given) | > 50 µM (inactive)
O=C1C(=Cc2ccccn2)CNCC1=Cc1ccccn1 | > 50 µM (inactive)
O=C(O)c1cc(O)c2c(c1)C(=O)c1cccc(O)c1C2=O | 3.34 µM
Cc1ccc(S(=O)(=O)Nc2cc(O)cc3cccnc23)cc1 | > 50 µM (inactive)
O=C1C(c2c(O)[nH]c3ccc([N+](=O)[O-])cc23)=Nc2ccccc21 | < 1.56 µM
Nc1ccc(NS(=O)(=O)c2ccccc2)c(O)c1 | > 50 µM (inactive)
CCOC(=O)C1=C(C)OC(N)=C(C(=O)OCC)C1c1cccnc1 (stereo not given) | > 50 µM (inactive)
O=C(CSc1n[nH]c(-c2ccccc2)n1)c1ccc(O)c(O)c1 | 7.72 µM
CC(=O)CCCNc1c(OCc2ccccc2)ccc2c(C)cc(=O)oc12 | > 50 µM (inactive)
O=C1c2ccccc2C(Nc2ccc3c(c2)OCO3)N1Cc1ccc2c(c1)OCO2 (stereo not given) | > 50 µM (inactive)
Nc1cc(Cl)cc2cccnc12 | > 50 µM (inactive)
Nc1c(S(=O)(=O)c2cccc(Cl)c2)c2nc3ccccc3nc2n1/N=C/c1ccc(O)c(O)c1 | > 50 µM (inactive)
Cc1ccc2[nH]c3c(c2c1)CN(C(=O)CN1CCN(c2ccccc2)CC1)CC3 | > 50 µM (inactive)

From PubChem BioAssay AID712 (Emory University Molecular Libraries Screening Center, 2007)
